Laboratory results as given in patent US20230285570A1, “THERAPEUTICALLY USEFUL CURE-PRO MOLECULES FOR E3 LIGASE MEDIATED DEGRADATION OF PROTEINS, AND METHODS OF MAKING AND USING THEM” (CORNELL UNIVERSITY, priority 2020, published 2023).
Entries after “also recorded” stand apart in the source; their conditions may differ.

Tests used:
Format in all cases: cell-based
BRD4 [1] = target: T1, BRD4 (Homo sapiens, UniProt O60885); assay: Summary of BRD4 degradation by CURE-PRO pairs, estimated from Western Blot or WES; set-up: endogenous in cells; conditions: for Degradation of BRD4, combination with CRBN ligand 8048: Table 4, aromatic 1,2-diol BRD4 ligand + 8048
Procedure: (§1) Namalwa, Ramosm HeLa, MCF7, or HT29 HCT116 cells (2.5-3×10^6) were treated for 24 hours with the indicated compounds solubilized in DMSO. The cells were washed in ice-cold PBS and were then lysed in RIPA lysis buffer (150 mM NaCl, 5 mM EDTA, 1% NP-40, 0.5% sodium deoxycholate, 0.1% SDS, 50 mM Tris, pH 8.0.) with Roche protease inhibitor complete cocktail and phosphatase inhibitors (10 mM sodium fluoride, 10 mM sodium pyrophosphate, 1 mM sodium orthovanadate and 20 mM β-glycerophosphate). The total protein concentrations were determined by Bradford Protein Assay (Pierce) and 10-20 μg of protein was loaded onto 4-15% Tris-Glycine gradient gels (Biorad). After standard gel electrophoresis, the separated proteins were transferred to PVDF membrane by wet transfer. The immunoblots were then blocked for 1 hour in 5% skim milk in TBST or 5% BSA in TBST, according to manufacturer's instructions, before an overnight incubation at 4° C. with indicated antibodies and membranes. Membranes were then incubated with the appropriate horseradish peroxidase-conjugated secondary antibodies (1:5,000 dilution) for 1 h at room temperature and the bands were visualized using the Clarity Max Western ECL Substrate (Biorad) and the ChemiDoc Imaging System (Biorad). Signal was detected with ECL Western Blotting Substrate (Pierce) and X-ray film processed with a Konica SRX-101 X-ray film processor or captured by Bio-Rad's Chemidoc Imaging system.
(§2) WES Simple analysis was performed on WES system (ProteinSimple-Biotechne) according to the manufacturer's instructions. Total protein concentrations of cell lysates were determined by the Pierce BCA kit (Thermo Fisher). 3 μL of 0.3 μg/μL of the protein lysate was loaded onto a 12- to 230-kDa WES assay plate (ProteinSimple) where 300 nL sample was withdrawn through a capillary, subjected to electrophoretic separation of proteins by size, and followed by the simultaneous, HRP-based detection of proteins using the Anti-Rabbit Detection Module (Proteinsimple: #DM-001). The electropherograms were checked then the automatic peak detection was manually corrected if it was required.
(§3) A black check mark indicates efficacy of 30% to 70% or higher protein degradation.

BRD4 [2] = target: T1, BRD4; assay: CURE-PRO-mediated BRD4 degradation in HeLa cells, Western blot; set-up: endogenous in cells; host or cells: HeLa; conditions: 24 h
Procedure: All cell lines were purchased from ATCC or DSMZ and grown at 37° C. with 5% CO2. Human HeLa cells were cultured in complete growth medium (Dulbecco's modified Eagle's medium (DMEM) supplemented with 10% FBS); MCF7 cells were cultured in complete growth medium (Dulbecco's modified Eagle's medium (DMEM) supplemented with 10% FBS and 0.01 mg/ml human recombinant insulin (Sigma Aldrich); Namalwa and Ramos cells were cultured in complete growth medium (RPMI 1640 medium supplemented with 10% FBS); HCT116 and HT29 cells were cultured in complete growth medium (McCoy's 5a Medium supplemented with 10% FBS). For cellular degradation of BRD4 studies cells were seeded in a 12-well plate at 70-80% confluency, allowed to attach overnight, and incubated with the indicated compounds for the indicated time. When indicated, a 15-minute pretreatment with 10 μM pomalidomide, 10 μM VHL298, 10 μM Nutlin3a, 1 μM MG-132 or 1 μM Carfilzomib was performed before the addition of CURE-PROs. For washout studies, after CURE-PRO treatment, media was aspirated and incubated with complete medium for the indicated time before lysis.
as §1
HeLa cells (2.5×10^6) were treated for 24 hours with the sample compounds solubilized in DMSO. Compounds were added at 1-10 μM each. Standardized protein samples were electrophoresed and imaged as described in the immunoblotting description above. FIGS. 6-18 depicts the CURE-PRO-mediated BRD4 degradation for BRD monomers (JQ1 derivatives comprising of catechol linkers), and CRBN ligands, 8048 and 8049 (pomalidomide derivatives comprising boronic acid linkers) combined in a 1:1 ratio.
HeLa cells (2.5×10^6) were treated for 24 hours with the compounds solubilized in DMSO. The compounds were added at 10 μM each. Standardized protein samples were electrophoresed and imaged as described in the immunoblotting section above. FIGS. 23-27 depicts the CURE-PRO-mediated BRD4 degradation for BRD monomers (JQ1 derivatives comprising of boronic acid linkers), and CRBN ligands, 8046, 8047 and 8066 (pomalidomide derivatives comprising diol linkers) combined in a 1:1 ratio.
HeLa cells (2.5×10^6) were treated for 24 hours with the compounds solubilized in DMSO. Compounds were added at 10 μM and 100 μM each. Standardized protein samples were electrophoresed and imaged as described in the immunoblotting section above.
HeLa cells (2.5×10^6) were treated for 24 hours with the compounds solubilized in DMSO. Compounds were added at 1 nM-1 μM each. […]

c-MYC = c-MYC (Homo sapiens, UniProt P01106); assay: Summary of C-MYC degradation by CURE-PRO pairs, estimated from Western Blot or WES; set-up: endogenous in cells; host or cells: HT29; conditions: for Degradation of C-MYC, combination with CRBN ligand 8066: Table 7, aryl-boronic acid MYC ligand + 8066
Procedure: as §1, §2, §3

[3] = BRD4 monomer alone, HeLa, 1-10 μM
[4] = co-treated 1:1 with CRBN ligand 8048, HeLa, 1-10 μM each
[5] = co-treated 1:1 with CRBN ligand 8049, HeLa, 1-10 μM each

Sequence of c-MYC (P01106 whole entry): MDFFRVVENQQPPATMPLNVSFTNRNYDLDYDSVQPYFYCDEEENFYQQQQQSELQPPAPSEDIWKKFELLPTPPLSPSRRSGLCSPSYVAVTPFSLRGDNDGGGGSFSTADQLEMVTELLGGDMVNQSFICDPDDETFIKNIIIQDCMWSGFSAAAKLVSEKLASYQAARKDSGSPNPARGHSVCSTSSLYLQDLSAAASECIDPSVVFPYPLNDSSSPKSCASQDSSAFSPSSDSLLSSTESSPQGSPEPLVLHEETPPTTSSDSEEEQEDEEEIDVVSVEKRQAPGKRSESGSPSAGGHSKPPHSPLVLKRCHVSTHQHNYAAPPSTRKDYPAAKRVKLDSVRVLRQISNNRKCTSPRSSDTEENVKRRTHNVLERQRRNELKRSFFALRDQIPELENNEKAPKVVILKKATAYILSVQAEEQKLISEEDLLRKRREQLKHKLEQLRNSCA

Row | SMILES | Degradation of BRD4, combination with CRBN ligand 8048 (BRD4 [1]) | BRD4 degradation (BRD4 [2]; [3]) | BRD4 degradation (BRD4 [2]; [4]) | BRD4 degradation (BRD4 [2]; [5]) | Degradation of BRD4, combination with CRBN ligand 8049 (BRD4 [1]; Table 4, aromatic 1,2-diol BRD4 ligand + 8049) | Degradation of BRD4, combination with MDM2 ligand 8312 (BRD4 [1]; Table 5, aromatic 1,2-diol BRD4 ligand + 8312) | Degradation of C-MYC, combination with CRBN ligand 8046 (c-MYC; Table 7, aryl-boronic acid MYC ligand + 8046) | Degradation of C-MYC, combination with CRBN ligand 8066 (c-MYC)
1 | COc1ccc2c(c1)C(c1ccc(Cl)cc1)=N[C@@H](CC(=O)NCCNC(=O)c1ccc(O)c(O)c1)c1nnc(C)n1-2 [BRD-N1] | √ (A black check mark indicates efficacy of 30% to 70% or higher protein degradation) | there is no degradation of BRD4 | causes degradation of BRD4; also recorded: Degradation is noted |  |  |  |  | 
2 | COc1ccc2c(c1)C(c1ccc(Cl)cc1)=N[C@@H](CC(=O)NCCCCNC(=O)c1ccc(O)c(O)c1)c1nnc(C)n1-2 [BRD-N5] | √ (A black check mark indicates efficacy of 30% to 70% or higher protein degradation) | there is no degradation of BRD4 | causes degradation of BRD4; also recorded: Degradation is noted | no evidence of BRD4 degradation |  |  |  | 
3 | COc1ccc2c(c1)C(c1ccc(Cl)cc1)=N[C@@H](CC(=O)NCCCCNC(=O)c1cccc(O)c1O)c1nnc(C)n1-2 [BRD-N6] | √ (A black check mark indicates efficacy of 30% to 70% or higher protein degradation) | there is no degradation of BRD4 | causes degradation of BRD4; also recorded: Degradation is noted | no evidence of BRD4 degradation |  |  |  | 
4 | CCNC(=O)C[C@@H]1N=C(c2ccc(Cl)cc2)c2cc(OCCCCC(=O)Nc3ccc(O)c(O)c3)ccc2-n2c(C)nnc21 [BRD-N22, 5-(((4S)-6-(4-chlorophenyl)-4-(2-(ethylamino)-2-oxoethyl)-1-methyl-4H-benzo[f][1,2,4]triazolo[4,3-a][1,4]diazepin-8-yl)oxy)-N-(3,4-dihydroxyphenyl)pentanamide] | √ (A black check mark indicates efficacy of 30% to 70% or higher protein degradation) | there is no degradation of BRD4 | causes degradation of BRD4; also recorded: Degradation is noted | no evidence of BRD4 degradation |  |  |  | 
5 | COc1ccc2c(c1)C(c1ccc(Cl)cc1)=N[C@@H](CC(=O)NCCNC(=O)Cc1ccc(O)c(O)c1)c1nnc(C)n1-2 [BRD-N30] | √ (A black check mark indicates efficacy of 30% to 70% or higher protein degradation) | there is no degradation of BRD4 | causes degradation of BRD4 |  |  |  |  | 
6 | CCNC(=O)C[C@@H]1N=C(c2ccc(Cl)cc2)c2cc(OCCOCCNC(=O)c3ccc(O)c(O)c3)ccc2-n2c(C)nnc21 [BRD-N38, N-(2-(2-(((4S)-6-(4-chlorophenyl)-4-(2-(ethylamino)-2-oxoethyl)-1-methyl-4H-benzo[f][1,2,4]triazolo[4,3-a][1,4]diazepin-8-yl)oxy)ethoxy)ethyl)-3,4-dihydroxybenzamide] | √ (A black check mark indicates efficacy of 30% to 70% or higher protein degradation) | there is no degradation of BRD4 | causes degradation of BRD4 |  |  |  |  | 
7 | COc1ccc2c(c1)C(c1ccc(Cl)cc1)=N[C@@H](CC(=O)NCCOCCOCCOCCNC(=O)c1ccc(O)c(O)c1)c1nnc(C)n1-2 [BRD-N44] | √ (A black check mark indicates efficacy of 30% to 70% or higher protein degradation) | there is no degradation of BRD4 | causes degradation of BRD4 |  |  |  |  | 
8 | CCNC(=O)C[C@@H]1N=C(c2ccc(Cl)cc2)c2cc(-c3ccc4cc(O)c(O)cc4c3)ccc2-n2c(C)nnc21 [BRD-N67] | √ (A black check mark indicates efficacy of 30% to 70% or higher protein degradation) | there is no degradation of BRD4 | causes degradation of BRD4 | causes degradation of BRD4 | √ (A black check mark indicates efficacy of 30% to 70% or higher protein degradation) |  |  | 
9 | COc1ccc2c(c1)C(c1ccc(Cl)cc1)=N[C@@H](CC(=O)NCCOCCOCCOCCOCCNC(=O)c1ccc(O)c(O)c1)c1nnc(C)n1-2 [BRD-N69] | √ (A black check mark indicates efficacy of 30% to 70% or higher protein degradation) | there is no degradation of BRD4 | causes degradation of BRD4; also recorded: Degradation is noted | no evidence of BRD4 degradation |  |  |  | 
10 | CCNC(=O)C[C@@H]1N=C(c2ccc(Cl)cc2)c2cc(OCCOCCOCCOCCOCCOCCNC(=O)c3ccc(O)c(O)c3)ccc2-n2c(C)nnc21 [BRD-N70, N-(17-(((4S)-6-(4-chlorophenyl)-4-(2-(ethylamino)-2-oxoethyl)-1-methyl-4H-benzo[f][1,2,4]triazolo[4,3-a][1,4]diazepin-8-yl)oxy)-3,6,9,12,15-pentaoxaheptadecyl)-3,4-dihydroxybenzamide] | √ (A black check mark indicates efficacy of 30% to 70% or higher protein degradation) |  | causes degradation of BRD4; also recorded: Degradation is noted | no evidence of BRD4 degradation |  |  |  | 
11 | CCNC(=O)C[C@@H]1N=C(c2ccc(Cl)cc2)c2cc(OCCOCCOCCOCCOCCOCCNC(=O)c3cccc(O)c3O)ccc2-n2c(C)nnc21 [BRD-N71, N-(17-(((4S)-6-(4-chlorophenyl)-4-(2-(ethylamino)-2-oxoethyl)-1-methyl-4H-benzo[f][1,2,4]triazolo[4,3-a][1,4]diazepin-8-yl)oxy)-3,6,9,12,15-pentaoxaheptadecyl)-2,3-dihydroxybenzamide] | √ (A black check mark indicates efficacy of 30% to 70% or higher protein degradation) | there is no degradation of BRD4 | causes degradation of BRD4; also recorded: Some selectivity for BRD-N71 and 8048 is noted | no evidence of BRD4 degradation |  | √ (A black check mark indicates efficacy of 30% to 70% or higher protein degradation) |  | 
12 | CCc1ccc(/C=C2\SC(=O)N(CCCc3cccc(B(O)O)c3)C2=O)cc1 [MYC- E02] |  |  |  |  |  |  | √ (A black check mark indicates efficacy of 30% to 70% or higher protein degradation) | √ (A black check mark indicates efficacy of 30% to 70% or higher protein degradation)
13 | O=C(NCc1ccc(B(O)O)cc1)c1cccc(Nc2ccc([N+](=O)[O-])c3nonc23)c1 [MYC- E09] |  |  |  |  |  |  |  | √ (A black check mark indicates efficacy of 30% to 70% or higher protein degradation)
